From patent US9062066B2, “Anti-inflammatory compound having inhibitory activity against multiple tyrosine kinases and pharmaceutical composition containing same” (KOREA INSTITUTE OF SCIENCE AND TECHNOLOGY, priority 2010, dated 2015) come the findings set out here.

Structures are written as SMILES. Where two headings read alike, the source gives them in different places.

In one assay the target is DDR2 tyrosine kinase (Homo sapiens (Human), UniProt Q16832). As to the kind of experiment: in vitro DDR2 tyrosine kinase inhibition (GST-fused kinase domain). The class given is biochemical. The note with it: 1 uM compound; for inhibition at 1 µM: read-out: % inhibition against DDR2.
Sequence of DDR2 tyrosine kinase (Q16832 563-849): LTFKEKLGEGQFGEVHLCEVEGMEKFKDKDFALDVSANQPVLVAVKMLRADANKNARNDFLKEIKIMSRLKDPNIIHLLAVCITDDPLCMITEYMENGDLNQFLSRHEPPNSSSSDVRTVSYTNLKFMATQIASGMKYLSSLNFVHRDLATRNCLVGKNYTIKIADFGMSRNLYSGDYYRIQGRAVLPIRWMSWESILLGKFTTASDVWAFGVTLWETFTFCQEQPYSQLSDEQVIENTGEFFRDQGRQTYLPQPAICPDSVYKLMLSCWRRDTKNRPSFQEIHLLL
The next assay addresses c-Src tyrosine kinase (Homo sapiens (Human), UniProt P12931). As to the kind of experiment: in vitro c-Src tyrosine kinase inhibition (32P-ATP, poly(D4Y)n substrate). It is filed as biochemical. The note with it: 1 uM compound; for inhibition at 1 µM: read-out: % inhibition against c-Src.
The target of a further assay is Hck tyrosine kinase (Homo sapiens (Human), UniProt P08631). Briefly: in vitro Hck tyrosine kinase inhibition. It is filed as biochemical. The note with it: 1 uM compound; for inhibition at 1 µM: read-out: % inhibition against Hck.
Sequence of Hck tyrosine kinase (P08631 whole entry, the tested form may be a part): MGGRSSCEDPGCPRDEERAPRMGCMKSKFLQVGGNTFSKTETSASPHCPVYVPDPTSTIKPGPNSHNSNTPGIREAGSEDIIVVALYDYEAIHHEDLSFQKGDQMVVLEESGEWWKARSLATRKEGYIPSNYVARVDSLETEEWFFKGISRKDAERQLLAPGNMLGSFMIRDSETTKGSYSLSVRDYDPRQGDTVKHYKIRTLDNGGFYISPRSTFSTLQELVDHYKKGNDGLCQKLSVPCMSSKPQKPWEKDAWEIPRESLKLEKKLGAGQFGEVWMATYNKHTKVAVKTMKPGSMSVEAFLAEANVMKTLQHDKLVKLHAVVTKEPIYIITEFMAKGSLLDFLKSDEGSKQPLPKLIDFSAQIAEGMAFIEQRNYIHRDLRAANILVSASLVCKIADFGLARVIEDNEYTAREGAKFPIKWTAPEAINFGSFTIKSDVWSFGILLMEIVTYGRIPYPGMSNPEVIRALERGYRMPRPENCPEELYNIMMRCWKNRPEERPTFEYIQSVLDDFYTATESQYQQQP
A further assay concerns the target DDR1 tyrosine kinase (Homo sapiens (Human), UniProt Q08345). Briefly: in vitro DDR1 tyrosine kinase inhibition (GST-fused kinase domain). It is filed as biochemical. The note with it: 1 uM compound; for inhibition at 1 µM: read-out: % inhibition against DDR1.
For a further assay, the target named is Fgr tyrosine kinase (Homo sapiens (Human), UniProt P09769). As to the kind of experiment: in vitro Fgr tyrosine kinase inhibition. The class given is biochemical. As to conditions: 1 uM compound; for inhibition at 1 µM: read-out: % inhibition against Fgr.
Sequence of Fgr tyrosine kinase (P09769 whole entry): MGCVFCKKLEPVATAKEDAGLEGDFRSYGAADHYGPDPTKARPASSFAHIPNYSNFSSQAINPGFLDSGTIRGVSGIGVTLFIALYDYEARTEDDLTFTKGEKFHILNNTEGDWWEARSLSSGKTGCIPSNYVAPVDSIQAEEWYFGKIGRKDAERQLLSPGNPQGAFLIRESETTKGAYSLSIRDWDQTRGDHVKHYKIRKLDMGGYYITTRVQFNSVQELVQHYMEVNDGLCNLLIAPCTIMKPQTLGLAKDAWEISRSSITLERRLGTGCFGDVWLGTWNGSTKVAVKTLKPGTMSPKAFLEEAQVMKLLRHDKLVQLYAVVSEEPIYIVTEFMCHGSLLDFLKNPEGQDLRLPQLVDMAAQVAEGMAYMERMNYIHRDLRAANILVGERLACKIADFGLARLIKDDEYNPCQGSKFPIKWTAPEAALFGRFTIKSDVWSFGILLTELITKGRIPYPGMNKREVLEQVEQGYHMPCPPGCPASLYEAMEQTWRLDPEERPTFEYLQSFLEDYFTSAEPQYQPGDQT
The subject of assay [1] is TNF-α synthesis in J744A.1 macrophages. Briefly: inhibition of TNF-α synthesis in LPS-activated macrophages (ELISA). The class given is cell-based. As to conditions: Macrophage; 10 μM compound, 100 ng/ml LPS, 6 hours; read-out: Inhibition (%) of TNF-α synthesis.
Assay [2] relates to NO synthesis in J744A.1 macrophage. Briefly: inhibition of nitric oxide (NO) synthesis in LPS-activated macrophages (Griess reagent). As to conditions: read-out: Inhibition (%) of NO synthesis. The class given is cell-based.
The target of the next assay is Lyn tyrosine kinase (Homo sapiens (Human), UniProt P07948). Briefly: in vitro Lyn tyrosine kinase inhibition. The class given is biochemical. As to conditions: 1 uM compound; for inhibition at 1 µM: read-out: % inhibition against Lyn.
Sequence of Lyn tyrosine kinase (P07948 whole entry): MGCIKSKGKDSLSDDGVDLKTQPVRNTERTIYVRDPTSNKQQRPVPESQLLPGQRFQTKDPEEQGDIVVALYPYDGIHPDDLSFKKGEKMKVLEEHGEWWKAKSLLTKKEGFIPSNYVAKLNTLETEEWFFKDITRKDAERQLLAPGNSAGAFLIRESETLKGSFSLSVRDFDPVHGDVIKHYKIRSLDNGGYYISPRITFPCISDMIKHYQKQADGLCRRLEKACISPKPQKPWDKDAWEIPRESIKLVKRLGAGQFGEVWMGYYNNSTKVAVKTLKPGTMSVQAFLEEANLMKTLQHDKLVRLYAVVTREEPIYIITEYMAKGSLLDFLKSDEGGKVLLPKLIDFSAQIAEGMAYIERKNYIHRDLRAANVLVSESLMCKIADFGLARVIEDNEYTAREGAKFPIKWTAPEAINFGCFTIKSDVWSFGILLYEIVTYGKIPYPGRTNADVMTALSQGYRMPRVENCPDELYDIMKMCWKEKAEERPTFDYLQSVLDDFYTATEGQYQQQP

Sequence of c-Src tyrosine kinase (P12931 whole entry, looked up): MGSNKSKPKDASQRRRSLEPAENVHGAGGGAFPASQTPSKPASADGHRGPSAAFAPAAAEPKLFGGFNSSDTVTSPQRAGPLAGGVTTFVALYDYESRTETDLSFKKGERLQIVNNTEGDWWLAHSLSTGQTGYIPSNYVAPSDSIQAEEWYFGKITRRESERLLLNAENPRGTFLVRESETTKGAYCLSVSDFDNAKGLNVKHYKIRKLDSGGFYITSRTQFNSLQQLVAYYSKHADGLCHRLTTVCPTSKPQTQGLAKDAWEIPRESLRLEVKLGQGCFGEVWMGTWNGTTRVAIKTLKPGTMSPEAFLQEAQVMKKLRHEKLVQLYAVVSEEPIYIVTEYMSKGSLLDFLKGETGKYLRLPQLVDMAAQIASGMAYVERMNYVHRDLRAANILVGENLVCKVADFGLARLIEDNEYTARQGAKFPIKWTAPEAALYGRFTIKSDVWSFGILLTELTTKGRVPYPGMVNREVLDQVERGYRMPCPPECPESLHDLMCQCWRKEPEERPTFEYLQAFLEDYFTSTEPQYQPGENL
Sequence of DDR1 tyrosine kinase (Q08345 610-905): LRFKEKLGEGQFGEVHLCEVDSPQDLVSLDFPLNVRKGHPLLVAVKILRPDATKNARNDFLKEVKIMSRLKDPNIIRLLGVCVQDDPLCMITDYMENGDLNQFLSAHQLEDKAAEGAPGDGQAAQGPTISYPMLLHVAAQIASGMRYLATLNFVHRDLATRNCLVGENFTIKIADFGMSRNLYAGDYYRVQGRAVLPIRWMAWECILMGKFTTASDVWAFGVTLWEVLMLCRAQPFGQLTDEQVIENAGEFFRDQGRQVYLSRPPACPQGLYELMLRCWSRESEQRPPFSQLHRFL

For `Oc1cccc(Nc2ncnc3cc(-c4ccccc4)sc23)c1` [LCB 03-0008, 3-(6-phenylthieno[3,2-d]pyrimidin-4-ylamino)phenol], the inhibition at 1 µM at DDR2 tyrosine kinase, on c-Src tyrosine kinase, on Hck tyrosine kinase, on DDR1 tyrosine kinase, at Fgr tyrosine kinase and at Lyn tyrosine kinase was above 70% in each case. Moreover, the inhibition at 10 µM in assay [1] came out at 67%; in assay [2] (10 μM compound, LPS, 24 hours), 87%.
Regarding `Oc1cccc(Nc2ncnc3cc(Br)sc23)c1` [LCB 03-0015, 3-(6-Bromo-thieno[3,2-d]pyrimidin-4-ylamino)-phenol], the inhibition at 1 µM on DDR2 tyrosine kinase was above 20%; on c-Src tyrosine kinase, above 60%; on Hck tyrosine kinase, above 60%; at DDR1 tyrosine kinase, above 20%; at Fgr tyrosine kinase, above 60%; on Lyn tyrosine kinase, above 60%. For the same compound, the inhibition at 10 µM in assay [1] turned out to be 71%.
Turning to `COc1ccc(-c2cc3ncnc(Nc4cccc(O)c4)c3s2)cc1` [LCB 03-0017, 3-[6-(4-Methoxy-phenyl)-thieno[3,2-d]pyrimidin-4-ylamino]-phenol], the inhibition at 1 µM on DDR2 tyrosine kinase was above 70%; at c-Src tyrosine kinase, above 60%; at Hck tyrosine kinase, above 60%; on DDR1 tyrosine kinase it was above 70%; on Fgr tyrosine kinase, above 60%; at Lyn tyrosine kinase it was above 60%. Further, the inhibition at 10 µM in assay [2] (10 μM compound, LPS, 24 hours) is 82%.
As for `COc1cccc(Nc2ncnc3cc(-c4ccc(OCCN5CCOCC5)cc4)sc23)c1` [LCB 03-0018, N-(3-methoxyphenyl)-6-(4-(2-morpholinoethoxy)phenyl)thieno[3,2-d]pyrimidin-4-amine], the inhibition at 1 µM on DDR2 tyrosine kinase, on c-Src tyrosine kinase, on Hck tyrosine kinase, on DDR1 tyrosine kinase, at Fgr tyrosine kinase and at Lyn tyrosine kinase was above 70% in each case. In addition, the inhibition at 10 µM in assay [1] turned out to be 68%; in assay [2] (10 μM compound, LPS, 24 hours) it was 89%.
`COc1cccc(Nc2ncnc3cc(-c4cccs4)sc23)c1` [LCB 03-0030, (3-Methoxyphenyl)-(6-thiophene-2-yl-thieno[3,2-d]pyrimidin-4-yl)-amine]: the “% inhibition against DDR2” value at DDR2 tyrosine kinase was above 70%. Also, the “% inhibition against c-Src” value at c-Src tyrosine kinase is above 40%. Also, the “% inhibition against Hck” value at Hck tyrosine kinase is listed as above 30%. Moreover, the “% inhibition against DDR1” value on DDR1 tyrosine kinase is recorded as above 70%. In addition, on Fgr tyrosine kinase, the “% inhibition against Fgr” value is listed as above 30%. For the same compound, the inhibition at 10 µM in assay [1] stood at 80%; in assay [2] (10 μM compound, LPS, 24 hours), 96%. Also, on Lyn tyrosine kinase, the “% inhibition against Lyn” value is on record as above 40%.
`Oc1cccc(Nc2ncnc3cc(-c4ccco4)sc23)c1` [LCB 03-0038, 3-(6-(furan-2-yl)thieno[3,2-d]pyrimidin-4-ylamino)phenol]: the inhibition at 1 µM on DDR2 tyrosine kinase was above 70%; on c-Src tyrosine kinase it was above 60%; on Hck tyrosine kinase, above 50%; on DDR1 tyrosine kinase it was above 70%; at Fgr tyrosine kinase, above 50%; at Lyn tyrosine kinase it was above 60%. In addition, the inhibition at 10 µM in assay [1] worked out at 85%; in assay [2] (10 μM compound, LPS, 24 hours), 88%.
As for `Oc1cccc(Nc2ncnc3cc(-c4ccoc4)sc23)c1` [LCB 03-0039, 3-(6-(furan-3-yl)thieno[3,2-d]pyrimidin-4-ylamino)phenol], the inhibition at 1 µM was above 70% at DDR2 tyrosine kinase; above 50% on c-Src tyrosine kinase; above 50% on Hck tyrosine kinase; above 70% at DDR1 tyrosine kinase; above 50% on Fgr tyrosine kinase; above 50% at Lyn tyrosine kinase. For the same compound, the inhibition at 10 µM in assay [1] turned out to be 80%; in assay [2] (10 μM compound, LPS, 24 hours) it was 80%.
With `Oc1cccc(Nc2ncnc3cc(-c4ccc(CCN5CCCC5)cc4)sc23)c1` [LCB 03-0043], the inhibition at 1 µM at DDR2 tyrosine kinase is above 80%; on c-Src tyrosine kinase it was above 30%; on Hck tyrosine kinase, above 30%; at DDR1 tyrosine kinase, above 80%; on Fgr tyrosine kinase it was above 30%; at Lyn tyrosine kinase, above 30%. Moreover, the inhibition at 10 µM in assay [2] (10 μM compound, LPS, 24 hours) came out at 66%.
In the case of `CN1CCN(C(=O)Cc2ccc(-c3cc4ncnc(Nc5cccc(O)c5)c4s3)cc2)CC1` [LCB 03-0047, 2-(4-(4-(3-hydroxyphenylamino)thieno[3,2-d]pyrimidin-6-yl)phenyl)-1-(4-methylpiperazin-1-yl)ethanone], the inhibition at 1 µM on DDR2 tyrosine kinase was above 70%; on c-Src tyrosine kinase, above 30%; at Hck tyrosine kinase it was above 30%; at DDR1 tyrosine kinase, above 70%; at Fgr tyrosine kinase it was above 30%; at Lyn tyrosine kinase it was above 20%. Moreover, the inhibition at 10 µM in assay [2] (24 h) came to 56%.
Turning to `O=C(Cc1ccc(-c2cc3ncnc(Nc4cccc(O)c4)c3s2)cc1)N1CCCC1` [LCB 03-0049, 2-(4-(4-(3-hydroxyphenylamino)thieno[3,2-d]pyrimidin-6-yl)phenyl)-1-(pyrrolidin-1-yl)ethanone], the inhibition at 1 µM on DDR2 tyrosine kinase was above 80%; on c-Src tyrosine kinase it was above 40%; at Hck tyrosine kinase it was above 40%; on DDR1 tyrosine kinase, above 80%; on Fgr tyrosine kinase, above 40%; at Lyn tyrosine kinase it was above 40%. Besides, the inhibition at 10 µM in assay [1] came to 57%; in assay [2] (10 μM compound, LPS, 24 hours), 88%.
For `O=C(c1cccc(-c2cc3ncnc(Nc4cccc(O)c4)c3s2)c1)N1CCCC1` [LCB 03-0053, (3-(4-(3-hydroxyphenylamino)thieno[3,2-d]pyrimidin-6-yl)phenyl)(pyrrolidin-1-yl)methanone], the inhibition at 1 µM at DDR2 tyrosine kinase is above 80%; at c-Src tyrosine kinase, above 70%; at Hck tyrosine kinase, above 70%; on DDR1 tyrosine kinase, above 80%; on Fgr tyrosine kinase, above 70%; at Lyn tyrosine kinase, above 70%. The inhibition at 10 µM turned out to be 83% in assay [1] and 94% in assay [2] (10 μM compound, LPS, 24 hours).
As to `CCOCc1ccc(-c2cc3ncnc(Nc4cccc(O)c4)c3s2)cc1` [LCB 03-0073, 3-(6-(4-(ethoxymethyl)phenyl)thieno[3,2-d]pyrimidin-4-ylamino)phenol], the inhibition at 1 µM at DDR2 tyrosine kinase is above 80%; on c-Src tyrosine kinase it was above 30%; on Hck tyrosine kinase it was above 30%; on DDR1 tyrosine kinase, above 80%; on Fgr tyrosine kinase, above 30%; on Lyn tyrosine kinase, above 30%. For the same compound, the inhibition at 10 µM in assay [2] (10 μM compound, LPS, 24 hours) is 85%.
Turning to `Oc1cccc(Nc2ncnc3cc(-c4ccc(N5CCOCC5)cc4)sc23)c1` [LCB 03-0082, 3-(6-(4-morpholinophenyl)thieno[3,2-d]pyrimidin-4-ylamino)phenol], the inhibition at 1 µM on c-Src tyrosine kinase, on Hck tyrosine kinase, on Fgr tyrosine kinase and at Lyn tyrosine kinase was above 70% each time. In addition, the inhibition at 10 µM was found to be 77% in assay [1] and 90% in assay [2] (10 μM compound, LPS, 24 hours).
Regarding `CN1CCN(Cc2csc(-c3cc4ncnc(Nc5cccc(O)c5)c4s3)c2)CC1` [LCB 03-0102, 3-(6-(4-((4-methylpiperazin-1-yl)methyl)thiophene-2-yl)thieno[3,2-d]pyrimidin-4-ylamino)phenol], the inhibition at 1 µM on DDR2 tyrosine kinase was above 70%; on c-Src tyrosine kinase, above 60%; on Hck tyrosine kinase it was above 60%; at DDR1 tyrosine kinase, above 70%; at Fgr tyrosine kinase, above 60%; at Lyn tyrosine kinase, above 60%. In addition, the inhibition at 10 µM in assay [2] (10 μM compound, LPS, 24 hours) came out at 97%.
For `CCNCc1csc(-c2cc3ncnc(Nc4cccc(O)c4)c3s2)c1` [LCB 03-0106, 3-(6-(4-((ethylamino)methyl)thiophene-2-yl)thieno[3,2-d]pyrimidin-4-ylamino)phenol], the inhibition at 1 µM at DDR2 tyrosine kinase, on c-Src tyrosine kinase, on Hck tyrosine kinase, at DDR1 tyrosine kinase, on Fgr tyrosine kinase and at Lyn tyrosine kinase was above 70% throughout. For the same compound, the inhibition at 10 µM in assay [1] came out at 63%.
Take `Oc1cccc(Nc2ncnc3cc(-c4cc(CN5CCCC5)co4)sc23)c1` [LCB 03-0113, 3-(6-(4-(pyrrolidin-1-ylmethyl)furan-2-yl)thieno[3,2-d]pyrimidin-4-ylamino)phenol]: the inhibition at 1 µM is above 70% at DDR2 tyrosine kinase; above 50% on c-Src tyrosine kinase; above 50% at Hck tyrosine kinase; above 70% on DDR1 tyrosine kinase; above 50% at Fgr tyrosine kinase; above 50% on Lyn tyrosine kinase.
For the compound `CN1CCN(Cc2coc(-c3cc4ncnc(Nc5cccc(O)c5)c4s3)c2)CC1` [LCB 03-0114, 3-(6-(4-((4-methylpiperazin-1-yl)methyl)furan-2-yl)thieno[3,2-d]pyrimidin-4-ylamino)phenol], the inhibition at 1 µM is above 70% on DDR2 tyrosine kinase; above 50% on c-Src tyrosine kinase; above 50% at Hck tyrosine kinase; above 70% at DDR1 tyrosine kinase; above 50% at Fgr tyrosine kinase; above 50% at Lyn tyrosine kinase.
Consider `Oc1cccc(Nc2ncnc3cc(-c4cc(CN5CCCCC5)co4)sc23)c1` [LCB 03-0115, 3-(6-(4-(piperidin-1-ylmethyl)furan-2-yl)thieno[3,2-d]pyrimidin-4-ylamino)phenol], for which the inhibition at 1 µM at DDR2 tyrosine kinase is above 70%; on c-Src tyrosine kinase, above 50%; on Hck tyrosine kinase, above 50%; on DDR1 tyrosine kinase it was above 70%; on Fgr tyrosine kinase it was above 50%; at Lyn tyrosine kinase it was above 50%.
